Test [1] addresses T1, Calcitonin receptor (Homo sapiens) (UniProt P30988).
T1 sequence (whole entry): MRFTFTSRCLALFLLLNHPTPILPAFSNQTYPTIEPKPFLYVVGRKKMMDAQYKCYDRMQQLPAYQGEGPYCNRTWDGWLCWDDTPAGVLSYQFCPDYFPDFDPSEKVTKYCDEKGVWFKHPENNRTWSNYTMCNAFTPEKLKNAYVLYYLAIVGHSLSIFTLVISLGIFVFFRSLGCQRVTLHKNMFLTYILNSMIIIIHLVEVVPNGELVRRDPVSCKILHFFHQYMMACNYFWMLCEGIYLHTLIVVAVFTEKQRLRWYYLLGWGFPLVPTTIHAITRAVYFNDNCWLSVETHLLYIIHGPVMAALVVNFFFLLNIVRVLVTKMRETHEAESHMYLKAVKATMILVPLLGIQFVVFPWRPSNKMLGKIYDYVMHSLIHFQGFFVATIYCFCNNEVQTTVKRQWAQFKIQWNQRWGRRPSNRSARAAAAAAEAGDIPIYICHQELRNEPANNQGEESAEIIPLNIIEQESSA
As to the kind of experiment: Displacement of [125I]calcitonin from T-47D (human breast cancer) cell membrane expressing human calcitonin receptor. It counts as cell membranes. Particulars: T47D; concentration not given here.

Test [2] deals with T2, Gastrin/cholecystokinin type B receptor (Homo sapiens) (UniProt P32239).
T2 sequence (whole entry): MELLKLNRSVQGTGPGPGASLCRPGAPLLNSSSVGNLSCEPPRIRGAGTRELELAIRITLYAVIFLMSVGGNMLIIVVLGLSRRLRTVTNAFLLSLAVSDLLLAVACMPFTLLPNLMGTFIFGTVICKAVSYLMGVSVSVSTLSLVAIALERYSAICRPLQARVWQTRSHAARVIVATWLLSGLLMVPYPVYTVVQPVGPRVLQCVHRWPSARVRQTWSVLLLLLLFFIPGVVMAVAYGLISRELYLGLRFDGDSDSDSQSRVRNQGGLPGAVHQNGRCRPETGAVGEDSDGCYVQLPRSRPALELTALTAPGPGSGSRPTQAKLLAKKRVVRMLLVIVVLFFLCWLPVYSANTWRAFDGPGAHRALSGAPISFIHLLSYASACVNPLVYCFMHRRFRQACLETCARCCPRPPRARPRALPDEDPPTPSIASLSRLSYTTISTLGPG
As to the kind of experiment: Displacement of [3H]CCK-8 from NIH3T3 (mouse embryo cell membrane ) expressing human cholecystokinin CCKB receptor. The test is classed as cell membranes. Details: concentration or dose not given beside the values. Particulars: concentration not given here.

Test [3] has as its target T3, C-X-C chemokine receptor type 1 (Homo sapiens) (UniProt P25024).
T3 sequence (whole entry): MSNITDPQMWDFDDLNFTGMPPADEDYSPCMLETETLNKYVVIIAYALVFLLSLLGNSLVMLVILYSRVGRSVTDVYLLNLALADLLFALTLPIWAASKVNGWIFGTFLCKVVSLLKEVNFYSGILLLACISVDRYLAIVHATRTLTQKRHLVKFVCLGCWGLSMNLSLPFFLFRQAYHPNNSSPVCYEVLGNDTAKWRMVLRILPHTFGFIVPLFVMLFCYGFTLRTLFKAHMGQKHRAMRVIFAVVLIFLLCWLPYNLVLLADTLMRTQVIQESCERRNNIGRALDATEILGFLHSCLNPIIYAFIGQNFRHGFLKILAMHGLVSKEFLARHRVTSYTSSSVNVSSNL
Description: Displacement of [125I]IL-8 from CHO cell membrane expressing human CXCR1 receptor at a concentration of 20 uM. It counts as cell membranes.

In test [4] the target is T4, C-X-C chemokine receptor type 2 (Homo sapiens, UniProt P25025).
T4 sequence (P25025 whole entry): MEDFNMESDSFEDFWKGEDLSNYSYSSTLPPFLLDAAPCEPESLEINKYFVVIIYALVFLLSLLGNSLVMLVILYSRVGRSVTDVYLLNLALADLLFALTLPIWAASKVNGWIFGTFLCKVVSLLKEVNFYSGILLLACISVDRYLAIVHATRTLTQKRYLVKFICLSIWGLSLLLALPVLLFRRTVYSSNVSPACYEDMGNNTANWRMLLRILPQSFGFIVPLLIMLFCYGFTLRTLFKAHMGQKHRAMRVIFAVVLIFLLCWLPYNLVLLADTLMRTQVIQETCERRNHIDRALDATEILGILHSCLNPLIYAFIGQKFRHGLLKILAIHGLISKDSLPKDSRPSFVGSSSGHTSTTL
As to the kind of experiment: Evaluated using an SPA assay with recombinant human [125I]IL-8 and membranes prepared from Sf9 cells expressing human CXCR2.

Test [5] addresses T5, C-X-C chemokine receptor type 2 (Homo sapiens) (UniProt P25025).
T5 sequence (whole entry): T4 sequence (P25025 whole entry)
Description: Displacement of [125I]IL-8 from CHO cell membrane expressing human CXCR2 receptor at a concentration of 20 uM. It counts as cell membranes.

Test [6] has as its target T6, Endothelin receptor type B (Homo sapiens) (UniProt P24530).
T6 sequence (whole entry): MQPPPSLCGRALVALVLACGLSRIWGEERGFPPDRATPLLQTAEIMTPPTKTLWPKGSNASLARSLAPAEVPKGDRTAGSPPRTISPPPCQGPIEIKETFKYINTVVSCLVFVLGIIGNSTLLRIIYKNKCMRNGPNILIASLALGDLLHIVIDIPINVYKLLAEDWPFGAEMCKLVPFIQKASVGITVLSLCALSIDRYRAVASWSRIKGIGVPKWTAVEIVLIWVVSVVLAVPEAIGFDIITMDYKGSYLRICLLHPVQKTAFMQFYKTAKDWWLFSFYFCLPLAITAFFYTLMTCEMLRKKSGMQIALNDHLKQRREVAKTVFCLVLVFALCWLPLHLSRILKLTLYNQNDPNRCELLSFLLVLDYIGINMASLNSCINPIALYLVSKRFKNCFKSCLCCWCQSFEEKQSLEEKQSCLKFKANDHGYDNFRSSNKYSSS
Description: Displacement of [125I]endothelin from CHO cell membrane expressing human Endothelin B receptor. The test is classed as cell membranes. Set-up: concentration or dose not given beside the values. Particulars: concentration not given here.

The species named for test [7] is Homo sapiens. Description: Functional selectivity was assessed in a neutrophil chemotaxis assay using N-formyl-methionyl-leucyl-phenylalanine (FMLP). It counts as organism-based.
The species entered for test [8] is Homo sapiens. Description: Ability to block GRO-alpha driven human neutrophil chemotaxis. It counts as functional, organism-based.
Test [9] addresses T7, Neuropeptide Y receptor type 1 (Homo sapiens) (UniProt P25929).
T7 sequence (whole entry): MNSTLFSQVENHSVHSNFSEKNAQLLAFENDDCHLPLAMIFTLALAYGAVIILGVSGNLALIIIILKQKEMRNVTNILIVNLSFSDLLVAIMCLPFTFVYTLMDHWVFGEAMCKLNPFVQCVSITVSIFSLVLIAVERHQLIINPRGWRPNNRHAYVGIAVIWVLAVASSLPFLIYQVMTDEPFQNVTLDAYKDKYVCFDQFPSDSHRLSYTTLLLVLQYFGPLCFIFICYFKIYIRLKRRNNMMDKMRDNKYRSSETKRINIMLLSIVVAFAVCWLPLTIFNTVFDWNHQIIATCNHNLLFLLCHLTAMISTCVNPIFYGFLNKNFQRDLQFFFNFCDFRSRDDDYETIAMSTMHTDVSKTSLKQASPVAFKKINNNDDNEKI
As to the kind of experiment: Displacement of [125I]-peptide YY (PYY) from SK-N-MC (human neuroblastoma) cell membrane expressing human Neuropeptide Y receptor type 1. Particulars: concentration not given here. Details: concentration or dose not given beside the values.

Test [10] concerns the target Somatostatin receptor (Mus musculus) (UniProt P30935+O08858+P30875+P30873+P49660). Description: Displacement of [125I]-TYR somatostatin from At-T-20 (mouse pituitary) cell membrane expressing somatostatin receptor. The test is classed as cell membranes. Particulars: Pituitary gland cell; concentration not given here.
The target in test [11] is T4, C-X-C chemokine receptor type 2. Description: Compound binding was evaluated using an SPA assay with recombinant human [125I]IL-8 and membranes prepared from Sf9 cells expressing human C-X-C chemokine receptor type 2. It counts as cell membranes.

Chain of Somatostatin receptor (Mus musculus) (P30935 whole entry): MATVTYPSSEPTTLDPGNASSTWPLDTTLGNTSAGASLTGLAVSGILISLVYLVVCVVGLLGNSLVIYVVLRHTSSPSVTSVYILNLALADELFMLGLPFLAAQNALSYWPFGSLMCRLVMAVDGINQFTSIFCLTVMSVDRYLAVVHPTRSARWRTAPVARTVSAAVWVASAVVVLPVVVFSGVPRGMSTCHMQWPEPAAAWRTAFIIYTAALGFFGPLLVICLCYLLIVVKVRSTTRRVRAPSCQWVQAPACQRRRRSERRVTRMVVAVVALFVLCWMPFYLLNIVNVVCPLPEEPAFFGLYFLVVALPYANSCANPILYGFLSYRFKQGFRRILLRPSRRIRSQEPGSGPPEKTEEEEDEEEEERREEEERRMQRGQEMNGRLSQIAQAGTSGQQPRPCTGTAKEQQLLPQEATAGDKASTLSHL
Chain of Somatostatin receptor (Mus musculus) (O08858 whole entry): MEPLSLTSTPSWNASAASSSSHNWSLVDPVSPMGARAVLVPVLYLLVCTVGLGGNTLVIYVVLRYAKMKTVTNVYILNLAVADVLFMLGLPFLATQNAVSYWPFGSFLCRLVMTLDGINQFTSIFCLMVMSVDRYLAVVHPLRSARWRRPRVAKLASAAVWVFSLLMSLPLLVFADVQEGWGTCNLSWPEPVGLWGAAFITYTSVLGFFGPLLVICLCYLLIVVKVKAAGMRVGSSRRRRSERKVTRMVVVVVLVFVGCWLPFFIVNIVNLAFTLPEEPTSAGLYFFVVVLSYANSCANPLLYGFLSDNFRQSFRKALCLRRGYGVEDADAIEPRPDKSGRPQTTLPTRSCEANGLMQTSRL
Chain of Somatostatin receptor (Mus musculus) (P30875 whole entry): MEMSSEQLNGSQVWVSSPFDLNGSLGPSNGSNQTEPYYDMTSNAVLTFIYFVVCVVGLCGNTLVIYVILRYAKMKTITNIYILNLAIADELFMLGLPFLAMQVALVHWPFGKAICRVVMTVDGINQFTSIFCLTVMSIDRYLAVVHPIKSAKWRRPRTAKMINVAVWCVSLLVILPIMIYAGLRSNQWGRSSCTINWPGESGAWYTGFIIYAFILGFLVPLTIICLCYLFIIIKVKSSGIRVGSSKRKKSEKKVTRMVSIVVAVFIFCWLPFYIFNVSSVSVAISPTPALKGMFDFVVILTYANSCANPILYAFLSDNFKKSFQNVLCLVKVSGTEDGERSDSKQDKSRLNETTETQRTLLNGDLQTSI
Chain of Somatostatin receptor (Mus musculus) (P30873 whole entry): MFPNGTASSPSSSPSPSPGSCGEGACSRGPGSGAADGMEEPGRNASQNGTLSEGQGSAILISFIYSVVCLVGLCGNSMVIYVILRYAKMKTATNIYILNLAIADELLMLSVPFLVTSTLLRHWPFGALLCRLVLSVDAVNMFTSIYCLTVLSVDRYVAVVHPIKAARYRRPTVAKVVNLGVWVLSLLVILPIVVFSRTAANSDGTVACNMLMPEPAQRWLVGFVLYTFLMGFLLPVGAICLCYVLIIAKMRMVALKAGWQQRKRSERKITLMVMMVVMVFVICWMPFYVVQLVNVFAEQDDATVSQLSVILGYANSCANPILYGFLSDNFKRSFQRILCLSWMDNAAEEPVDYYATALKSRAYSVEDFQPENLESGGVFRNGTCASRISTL
Chain of Somatostatin receptor (Mus musculus) (P49660 with tags, fused parts or gaps): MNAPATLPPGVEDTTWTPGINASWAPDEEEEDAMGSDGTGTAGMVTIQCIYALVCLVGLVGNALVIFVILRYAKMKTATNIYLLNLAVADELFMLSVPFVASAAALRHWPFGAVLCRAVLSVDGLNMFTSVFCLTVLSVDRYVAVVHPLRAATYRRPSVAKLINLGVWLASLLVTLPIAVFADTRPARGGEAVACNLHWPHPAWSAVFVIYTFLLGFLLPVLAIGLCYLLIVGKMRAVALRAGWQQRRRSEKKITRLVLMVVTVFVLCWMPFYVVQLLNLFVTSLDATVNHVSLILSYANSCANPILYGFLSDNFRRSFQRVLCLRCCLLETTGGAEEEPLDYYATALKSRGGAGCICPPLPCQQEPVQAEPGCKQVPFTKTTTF

As to `O=C(Nc1ccc(F)cc1)c1ccc(Cl)[n+]([O-])c1`, the inhibition is -1% in [1]; 11% in [2]; 68% in test [3]; 85% in test [5]; 14% in [6]; 15% in test [9]. Also, in [10], the inhibition is -2%. The results for the IC50 (in test [4]; in the test filed under Homo sapiens [7]; in the test filed under Homo sapiens [8]) were 1 µM, above 40 µM and 1.1 µM, respectively.

As to `CS(=O)(=O)c1ccc(C(=O)Nc2ccc(F)cc2)c[n+]1[O-]`, the inhibition came out at 40% in [2]; 73% in test [3]; 97% in [5]; 8% in test [6]; 58% in test [9]; 60% in test [10]. The 50% inhibitory concentration (IC50) was found to be 0.13 µM in test [4], 9.6 µM in the test listed under Homo sapiens [7] and 2 µM in the test filed under Homo sapiens [8].

Take `CCN(CC)CCCCNc1nc2cc(Cl)c(Cl)cc2nc1-c1ccc(-c2cccs2)s1`: the IC50 stood at 0.11 µM in test [11] and 0.17 µM in the test filed under Homo sapiens [8].

Regarding `CC(C)S(=O)(=O)c1ccc(C(=O)Nc2ccc(F)cc2)c[n+]1[O-]`, the IC50 in test [4] stood at 0.4 µM; in the test filed under Homo sapiens [8] it was 2 µM.

For the molecule `O=C(Nc1ccccc1O)c1ccc(Cl)[n+]([O-])c1`, the IC50 in test [4] is above 20 µM; in the test filed under Homo sapiens [8], 4.2 µM.

Regarding `O=C(Nc1ccc(F)cc1)c1ccc(S(=O)(=O)C2CCCC2)[n+]([O-])c1`, the inhibition in [1] is 4%; in [2], 1%; in test [3] it was 8%; in [5], 60%; in test [6], -2%; in test [9], -1%. Also, the concentration for half-maximal inhibition (IC50) in [4] is 0.46 µM; in the test filed under Homo sapiens [8] it was 1.9 µM.

`N#Cc1ccc(NC(=O)Nc2ccccc2Br)c2nn[nH]c12`: it took 0.01 µM to reach half-maximal inhibition in the test filed under Homo sapiens [8] (IC50).

As to `CCS(=O)(=O)c1ccc(C(=O)Nc2ccc(F)cc2)c[n+]1[O-]`, the inhibition in test [1] was 3%; in [2], 14%; in test [3] it was 8%; in test [5], 97%; in [6], 15%; in test [9] it was 41%. The IC50 in test [4] amounted to 0.13 µM; in the test filed under Homo sapiens [7] it was 13.3 µM; in the test listed under Homo sapiens [8], 3.3 µM.

For `O=C(Nc1ccc(F)cc1)c1ccc(S(=O)(=O)Cc2ccccc2)[n+]([O-])c1`, the inhibition is 29% in [2]; 9% in test [3]; 77% in test [5]; 8% in [6]; 32% in test [9]; 38% in [10]. Moreover, the IC50 stood at 0.28 µM in test [4], 13 µM in the test filed under Homo sapiens [7] and 1 µM in the test filed under Homo sapiens [8].

As for `O=C(Nc1ccc(F)cc1)c1ccc(S(=O)(=O)c2ccccc2)[n+]([O-])c1`, the IC50 in test [4] is 0.09 µM; in the test listed under Homo sapiens [8] it was above 20 µM.

In the case of `COc1ccc(NC(=O)c2ccc(Cl)[n+]([O-])c2)cc1`, the IC50 (in test [4]; in the test listed under Homo sapiens [8]) was above 20 µM throughout.

Take `O=C(NC(c1ccccc1)c1ccccc1)c1ccc(Cl)[n+]([O-])c1`: the IC50 in test [4] was above 20 µM; in the test listed under Homo sapiens [8], 0.83 µM.

Turning to `O=C(O)c1cccc(S(=O)(=O)c2ccc(C(=O)Nc3ccc(F)cc3)c[n+]2[O-])c1`, the results for the IC50 (in [4]; in the test filed under Homo sapiens [8]) were 0.032 µM and above 20 µM, respectively.

On to `O=C(Nc1ccc(I)cc1)c1ccc(Cl)[n+]([O-])c1`, for which the figures for the IC50 (in test [4]; in the test listed under Homo sapiens [8]) were above 20 µM and 0.5 µM, respectively.

For the molecule `CC(C)(C)c1ccc(NC(=O)c2ccc(Cl)[n+]([O-])c2)cc1`, the results for the concentration for half-maximal inhibition (IC50) (in test [4]; in the test filed under Homo sapiens [8]) were above 20 µM and 1.3 µM, respectively.

As for `O=C(NC1CCCCC1)c1ccc(Cl)[n+]([O-])c1`, the IC50 (in test [4]; in the test listed under Homo sapiens [8]) was above 20 µM in each case.

Regarding `O=C(NCc1ccc(F)cc1)c1ccc(Cl)[n+]([O-])c1`, the IC50 (in test [4]; in the test listed under Homo sapiens [8]) was above 20 µM throughout.

(Values after ChEMBL document CHEMBL1133879, “Nicotinamide N-oxides as CXCR2 antagonists” (Bioorg Med Chem Lett, 2001).)
